Experimental data as given in US5783597A, “2,5-disubstituted thiophenes: inhibitors of 5-lipoxygenase and inducible cyclooxygenase (COX-2) enzymes, composition and use” (Ortho Pharmaceutical Corporation, priority 1997, dated 1998).

Key:
[1] = molecular target: T1, Human Prostaglandin H2 Synthase Typ II (Cox-2) (Homo sapiens, UniProt P35354); assay: Human Prostaglandin H2 Synthase Typ II (Cox-2) Whole Cell Assay, ECV-304 cells (Procedure III); assay type: cell-based; details: ECV-304 whole cells, PGE2 produced; read-out: Procedure III (COX-2) Wh Cell IC50
T1 construct: endogenous in cells; host or cells: ECV-304 cells treated with PMA and ionomycin for 16 hours
T1 sequence (P35354 18-604): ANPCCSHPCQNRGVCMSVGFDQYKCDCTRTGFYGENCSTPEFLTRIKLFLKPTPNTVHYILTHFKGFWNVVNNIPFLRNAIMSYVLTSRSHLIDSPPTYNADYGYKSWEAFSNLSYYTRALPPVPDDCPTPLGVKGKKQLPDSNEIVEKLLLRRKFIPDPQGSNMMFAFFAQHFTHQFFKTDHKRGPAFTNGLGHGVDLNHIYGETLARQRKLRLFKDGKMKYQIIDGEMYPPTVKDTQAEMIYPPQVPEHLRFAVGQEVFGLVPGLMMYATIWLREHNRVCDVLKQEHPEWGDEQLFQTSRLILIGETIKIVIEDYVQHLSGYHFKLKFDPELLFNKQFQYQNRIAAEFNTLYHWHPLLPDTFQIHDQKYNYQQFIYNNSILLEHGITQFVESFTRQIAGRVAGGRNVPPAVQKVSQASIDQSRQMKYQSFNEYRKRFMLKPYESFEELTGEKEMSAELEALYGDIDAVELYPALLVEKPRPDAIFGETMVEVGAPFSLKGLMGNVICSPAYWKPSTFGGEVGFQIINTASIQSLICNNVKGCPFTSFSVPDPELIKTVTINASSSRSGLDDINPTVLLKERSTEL
Method: Human Prostaglandin H2 Synthase Typ II (Cox-2) Whole Cell Assay (Multiple Concentrations)
ECV-304 (human, endothelial, umbilical cord) cells are maintained in culture in a suitable medium, and are trypsinized and plated at a density of 1×10^6 cells per well of a 6 well plate prior to assay. Approximately 28 hours later, 50 μg/ml PMA and […] ionomycin (both final concentrations) are added to each well and incubated for an additional 16 hours. Vehicle or test compounds are incubated with the cells for five minutes prior to initiation of Cox-2 enzyme activity by the addition of 30 μM arachidonic acid. Ten minutes later, an aliquot of the supernatant is withdrawn and the amount of PGE2 present quantitated by radioimmunoassay. Activity, reported as percent inhibition of PGE2 produced, is calculated as follows: […]

5-lipoxygenase (5-LO) = molecular target: T2, 5-lipoxygenase (5-LO) (Rattus norvegicus, UniProt P12527); assay: RBL-1 cell 5-lipoxygenase and cyclooxygenase - Whole cells (Procedure II); assay type: cell-based; details: intact RBL-1 cells, 5-HETE; read-out: Procedure II (5-LO) Wh Cell IC50
T2 construct: endogenous in cells; host or cells: intact RBL-1 (rat basophilic leukemia) cells, stimulated with calcium ionophore A23187
T2 sequence (P12527 1-673): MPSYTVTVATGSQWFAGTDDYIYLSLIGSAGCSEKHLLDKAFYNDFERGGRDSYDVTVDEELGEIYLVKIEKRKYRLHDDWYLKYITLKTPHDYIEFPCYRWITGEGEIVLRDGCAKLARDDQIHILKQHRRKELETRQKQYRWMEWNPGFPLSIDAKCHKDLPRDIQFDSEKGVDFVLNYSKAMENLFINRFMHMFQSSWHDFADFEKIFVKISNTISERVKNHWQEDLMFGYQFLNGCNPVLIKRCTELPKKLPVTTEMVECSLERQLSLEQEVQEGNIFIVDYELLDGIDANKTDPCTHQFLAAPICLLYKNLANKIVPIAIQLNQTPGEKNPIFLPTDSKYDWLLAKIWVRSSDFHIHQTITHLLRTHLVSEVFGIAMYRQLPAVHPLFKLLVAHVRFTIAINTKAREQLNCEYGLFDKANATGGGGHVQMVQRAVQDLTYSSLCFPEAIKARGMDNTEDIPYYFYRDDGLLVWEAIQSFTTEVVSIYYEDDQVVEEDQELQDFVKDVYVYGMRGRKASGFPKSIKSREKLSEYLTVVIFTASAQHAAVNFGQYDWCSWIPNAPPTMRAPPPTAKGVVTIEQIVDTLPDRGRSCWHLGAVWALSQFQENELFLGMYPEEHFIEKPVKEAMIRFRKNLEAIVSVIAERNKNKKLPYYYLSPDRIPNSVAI
Method: RBL-1 Cell 5-Lipoxygenase and cyclooxygenase - Whole cells
The ability to inhibit 5-LO and CO in intact RBL-1 cells was also evaluated. […] Cells were collected by centrifugation, washed once in HBSS, and resuspended at a concentration of 1×10^5 cells/mL. Cells were incubated in the presence of vehicle or drug then centrifuged at 800×g for 10 minutes at 4° C. The supernatant was removed by aspiration and the cells were resuspended in 0.5 mL of HBSS. […] The conversion of M to 5-LO products was initiated by the addition of 10 μL (50 uCi) of 1-^14 C-AA. Products were isolated by acidification and extraction, followed by thin layer chromatography analysis as described above. Radioactive areas corresponding to authentic 5-LO (5-HETE) and CO (PGD2) products were quantitated by the Bioscan 2000 Imaging System.

CS(=O)(=O)Nc1ccc(Oc2ccc(F)cc2)s1 [Example 1] showed an IC50 [1] of 1.81 µM and an IC50 (5-lipoxygenase (5-LO)) of 0.46 µM.
